# From patent publication US11512203B2, “Water-soluble azo compound or salt thereof, ink and recording medium” (Nippon Kayaku Kabushiki Kaisha, priority 2016, dated 2022)
# Test: Xenon light resistance test, ink of Example 18 (Table 58)
# Format: physicochemical
# Settings: for each glossy paper (Table 58)
# Experimental: An ink of Example 18 was prepared as in Example 1 except that the compound represented by the above formula (200) was used instead of the compound represented by the above formula (101).
# Ink-jet recording was performed with an ink-jet printer (Canon, Inc., Product name: PIXUS ip7230) to allow each of the inks from Example 18 and Comparative Examples 1, 2 above to be attached on the following glossy papers 1 to 4. Upon performing recording, image patterns were created so that the density can be obtained in a gradation of 6 levels: 100%, 85%, 70%, 55%, 40%, and 25% to obtain a half-tone recorded article. The resulting recorded article was used as a test piece to perform the following tests.
# Glossy paper 1: Canon, Inc., Product name: Canon Photograph paper, platinum grade (PT-201)
# Glossy paper 2: Seiko Epson Corporation, Product name: Photograph paper Crispia
# Glossy paper 3: Brother Industries, Ltd., Product name: BP71G
# Glossy paper 4: FUJIFILM Corporation, Product name: Gasai Photo-finishing Pro
# When required, color measurements of a recorded image were performed using a colorimeter (Product name SpectroEye from X-rite, Inc.). Color measurements were performed under the conditions of a density standard of DIN NB, a wide viewing angle of 2 degrees, a light source of D65. […]
smiles,measurement,value
O=S(=O)(O)CCCOc1cc(N=Nc2ccc(Cl)c(S(=O)(=O)O)c2)c(Cl)cc1Nc1nc(Nc2cc(Cl)c(N=Nc3ccc(Cl)c(S(=O)(=O)O)c3)cc2OCCCS(=O)(=O)O)nc(N2CCN(c3nc(Nc4cc(Cl)c(N=Nc5ccc(Cl)c(S(=O)(=O)O)c5)cc4OCCCS(=O)(=O)O)nc(Nc4cc(Cl)c(N=Nc5ccc(Cl)c(S(=O)(=O)O)c5)cc4OCCCS(=O)(=O)O)n3)CC2)n1 [Example 18],"light resistance tests, results compared with Comparative Examples 1, 2",better results
